# Measurements taken from PubChem BioAssay (NCI).
#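 Method: 48-hour compound exposure of cells in 96-well plates, five concentrations, linear interpolation of endpoints. The concentration for 50% growth inhibition is given as GI50. TGI: total growth inhibition.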
# Columns and labels:
# Test in all cases: NCI-60 cell line screen, 48 h
# KM12 colon = system: KM12 colon
# K-562 leukemia = system: K-562 leukemia
# SF-268 CNS = system: SF-268 CNS
# MOLT-4 leukemia = system: MOLT-4 leukemia
# MCF7 breast = system: MCF7 breast
# ACHN renal = system: ACHN renal
# HOP-62 NSCLC = system: HOP-62 NSCLC
# UACC-62 melanoma = system: UACC-62 melanoma
# CCRF-CEM leukemia = system: CCRF-CEM leukemia
# HOP-92 NSCLC = system: HOP-92 NSCLC
SMILES,GI50 (KM12 colon),TGI (KM12 colon),GI50 (K-562 leukemia),TGI (K-562 leukemia),GI50 (SF-268 CNS),TGI (SF-268 CNS),GI50 (MOLT-4 leukemia),TGI (MOLT-4 leukemia),GI50 (MCF7 breast),TGI (MCF7 breast),GI50 (ACHN renal),TGI (ACHN renal),GI50 (HOP-62 NSCLC),TGI (HOP-62 NSCLC),GI50 (UACC-62 melanoma),TGI (UACC-62 melanoma),TGI (CCRF-CEM leukemia),TGI (HOP-92 NSCLC),GI50 (HOP-92 NSCLC),GI50 (CCRF-CEM leukemia)
COC(=O)C1CC2(c3ccc(C)cc3)C(c3ccc(C)cc3)=C(c3ccc(C)cc3)C1(c1ccc(C)cc1)S2=O (configuration not stated),> 100 µM,> 100 µM,> 100 µM,> 100 µM,> 100 µM,> 100 µM,> 100 µM,> 100 µM,> 100 µM,> 100 µM,> 100 µM,> 100 µM,34.8 µM,> 100 µM,> 100 µM,> 100 µM,–,–,–,–
COc1cc(C2[C@H]3C(=O)N(c4ccc(Cc5ccc(N6C(=O)[C@@H]7ON(c8ccccc8)C(c8cc(OC)c(OC)c(OC)c8)[C@@H]7C6=O)cc5)cc4)C(=O)[C@H]3ON2c2ccccc2)cc(OC)c1OC (some centres not stated),–,> 100 µM,–,> 100 µM,–,> 100 µM,–,> 100 µM,–,–,–,> 100 µM,–,> 100 µM,–,> 100 µM,> 100 µM,–,–,–
O=C1c2cnccc2Cc2cccc3c2N1c1ccccc1S3,–,66 µM,–,> 100 µM,–,> 100 µM,–,> 100 µM,–,–,–,73.9 µM,–,57.2 µM,–,41.7 µM,85 µM,38.5 µM,–,–
CC(=O)OCCC/C(=C\c1ccc2ccccc2c1)[N+](=O)[O-],1.59 µM,3.18 µM,2.01 µM,> 100 µM,1.67 µM,3.43 µM,4.87 µM,> 100 µM,–,–,1.89 µM,3.68 µM,2 µM,4.09 µM,1.47 µM,2.98 µM,7.88 µM,3.17 µM,1.44 µM,2.19 µM
C(=C1\CCC/C(=C/c2ccccc2)C1=NNc1ccccc1)/c1ccccc1,–,> 100 µM,–,> 100 µM,–,> 100 µM,–,> 100 µM,–,–,–,> 100 µM,–,> 100 µM,–,> 100 µM,> 100 µM,> 100 µM,–,–
COc1ccc(-c2cc(-c3ccccc3)c(C#N)c(=O)[nH]2)cc1,–,> 100 µM,–,> 100 µM,–,> 100 µM,–,> 100 µM,–,–,–,> 100 µM,–,> 100 µM,–,> 100 µM,> 100 µM,> 100 µM,–,–
CC1(C)CCc2cc3c(cc2O1)OC(C)(C)C1c2c(ccc4c2CCC(C)(C)O4)OC31 (configuration not stated),–,> 100 µM,–,> 100 µM,–,> 100 µM,–,> 100 µM,–,–,–,> 100 µM,–,> 100 µM,–,> 100 µM,> 100 µM,> 100 µM,–,–
Cn1cc2ccccc2c1-c1nc(F)nc(Oc2ccc3c(c2)CC[C@@H]2C3CC[C@]3(C)C(O)CCC23)n1 (some centres not stated),–,–,–,> 100 µM,–,35.1 µM,–,65.7 µM,–,–,–,34.1 µM,–,33 µM,–,–,36.5 µM,44.3 µM,–,–
CSc1nc2c(nc(N)n2C2OCC(O)C(O)C2O)c(=O)[nH]1 (configuration not stated),–,> 100 µM,–,> 100 µM,–,> 100 µM,–,> 100 µM,–,–,–,> 100 µM,–,> 100 µM,–,> 100 µM,> 100 µM,> 100 µM,–,–
O=C1c2c(c3c4ccccc4n4c3c3c2c2ccccc2n3C/C=C\C4)C(=O)N1Cc1ccccc1,–,> 100 µM,–,> 100 µM,–,–,–,> 100 µM,–,–,–,> 100 µM,–,> 100 µM,–,> 100 µM,> 100 µM,–,–,–
Cn1c(=O)c(C(c2ccccc2)c2c(O)c3ccccc3n(C)c2=O)c(O)c2ccccc21,–,> 100 µM,–,> 100 µM,–,> 100 µM,–,> 100 µM,–,–,–,> 100 µM,–,–,–,> 100 µM,–,> 100 µM,–,–
NC1=CC(=O)C(=O)c2cccnc21,12 µM,25.8 µM,3.03 µM,10.6 µM,4.81 µM,18 µM,3.15 µM,8.41 µM,3.74 µM,16.8 µM,6.73 µM,19.9 µM,2.58 µM,7.15 µM,1.83 µM,3.79 µM,10.5 µM,–,–,3.16 µM
NC(=O)Nc1ccc2ncnc(Nc3ccc(Cl)cc3)c2c1,33.4 µM,> 100 µM,28.9 µM,> 100 µM,21.7 µM,> 100 µM,21.4 µM,84.7 µM,26.9 µM,> 100 µM,1.49 µM,45.3 µM,26.7 µM,> 91.9 µM,14.3 µM,37.3 µM,> 100 µM,–,–,20.3 µM
CC(C)O/C=C1\C(=O)C2(SCCS2)[C@H]2CCCC[C@@H]12,–,> 100 µM,–,> 100 µM,–,> 100 µM,–,46.4 µM,–,–,–,> 100 µM,–,> 100 µM,–,69.4 µM,73.2 µM,–,–,–
CC1=C(C(=O)Nc2ccccc2C)C(c2ccc(N(C)C)cc2)C(C(=O)Nc2ccccc2C)=C(C)N1,–,> 100 µM,–,> 100 µM,–,> 100 µM,–,> 100 µM,–,–,–,> 100 µM,–,> 100 µM,–,> 100 µM,> 100 µM,–,–,–
COc1ccc2oc(-c3ccncc3)cc(=O)c2c1,–,> 100 µM,–,> 100 µM,–,> 100 µM,–,> 100 µM,–,–,–,> 100 µM,–,> 100 µM,–,> 100 µM,> 100 µM,> 100 µM,–,–

SMILES,GI50 (KM12 colon),TGI (KM12 colon),GI50 (K-562 leukemia),TGI (K-562 leukemia),GI50 (SF-268 CNS),TGI (SF-268 CNS),GI50 (MOLT-4 leukemia),TGI (MOLT-4 leukemia),GI50 (MCF7 breast),TGI (MCF7 breast),GI50 (ACHN renal),TGI (ACHN renal),GI50 (HOP-62 NSCLC),TGI (HOP-62 NSCLC),GI50 (UACC-62 melanoma),TGI (UACC-62 melanoma),TGI (CCRF-CEM leukemia),TGI (HOP-92 NSCLC),GI50 (HOP-92 NSCLC),GI50 (CCRF-CEM leukemia)
CCCNC(=O)c1cc2ccccc2cc1C(=O)OC,–,> 100 µM,–,> 100 µM,–,> 100 µM,–,> 100 µM,–,–,–,> 100 µM,–,> 100 µM,–,> 100 µM,> 100 µM,> 100 µM,–,–
CCOC(=O)CNC(SC)=C(C#N)C#N,–,> 100 µM,–,> 100 µM,–,> 100 µM,–,> 100 µM,–,–,–,–,–,> 100 µM,–,> 100 µM,> 100 µM,> 100 µM,–,–
CCOC(=O)c1c(-c2[nH]c(C(=O)OCc3ccccc3)c(C)c2C(=O)OCC)[nH]c(C(=O)OCc2ccccc2)c1C,–,–,–,–,–,> 100 µM,–,> 100 µM,–,–,–,> 100 µM,–,> 100 µM,–,> 100 µM,–,> 100 µM,–,–
OCCc1cnco1,–,> 100 µM,–,> 100 µM,–,> 100 µM,–,> 100 µM,–,–,–,–,–,> 100 µM,–,> 100 µM,> 100 µM,–,–,–
COc1ccc(S(=O)(=O)O)cc1NS(=O)(=O)c1ccc(C)cc1,–,> 100 µM,–,> 100 µM,–,> 100 µM,–,> 100 µM,–,> 100 µM,–,> 100 µM,–,> 100 µM,–,> 100 µM,> 100 µM,–,–,–
O=C1C2Cc3ccccc3CN2C(=O)N1CN1CCN(CN2C(=O)C3Cc4ccccc4CN3C2=O)CC1 (configuration not stated),–,> 100 µM,–,> 100 µM,–,> 100 µM,–,> 100 µM,–,–,–,> 100 µM,–,> 100 µM,–,> 100 µM,> 100 µM,> 100 µM,–,–
Cc1cn(C2C=CC(=O)C(C)O2)c(=O)[nH]c1=O (configuration not stated),–,30.1 µM,–,36.9 µM,–,33.5 µM,–,40.9 µM,–,–,–,31.3 µM,–,43.2 µM,–,29.1 µM,32.5 µM,29.5 µM,–,–
COc1cc2c(c3oc(-c4ccc5c(c4)OCO5)c(O)c(=O)c13)CCC(C)(C)O2,–,> 100 µM,–,> 100 µM,–,–,–,> 100 µM,–,–,–,–,–,–,–,> 100 µM,> 100 µM,–,–,–
COc1cc2ccc(CC#N)cc2cc1OC,–,> 100 µM,–,> 100 µM,–,> 100 µM,–,> 100 µM,–,–,–,> 100 µM,–,> 100 µM,–,–,> 100 µM,> 100 µM,–,–
COc1cc(NCC(C#N)C#N)ccc1N=Nc1ccc([N+](=O)[O-])cc1,–,> 100 µM,–,> 100 µM,–,> 100 µM,–,> 100 µM,–,–,–,> 100 µM,–,> 100 µM,–,> 100 µM,> 100 µM,–,–,–
CC1SC2=NC3=C(c4ccccc4C3=O)C(c3ccc(Br)cc3)N2C1=O (configuration not stated),–,> 100 µM,–,> 100 µM,–,> 100 µM,–,> 100 µM,–,–,–,> 100 µM,–,> 100 µM,–,> 100 µM,> 100 µM,> 100 µM,–,–
COc1ccc(CNc2nc3ccccc3nc2-c2cccs2)cc1OC,–,–,–,> 100 µM,–,> 100 µM,–,> 100 µM,–,–,–,> 100 µM,–,> 100 µM,–,–,> 100 µM,51.3 µM,–,–
COc1cc(C/C=C/c2ccccc2)c(OC)cc1O,–,30.7 µM,–,31.6 µM,–,59.4 µM,–,52.8 µM,–,–,–,52.7 µM,–,–,–,37.7 µM,52.3 µM,33 µM,–,–
C#CCOCn1cnc2ncnc(Cl)c21,–,> 100 µM,–,> 100 µM,–,> 100 µM,–,> 100 µM,–,–,–,> 100 µM,–,> 100 µM,–,> 100 µM,> 100 µM,> 100 µM,–,–
CCC[CH2][Sn]1([CH2]CCC)[O]C(=O)C[S]1,2.6 µM,10.9 µM,0.405 µM,3.59 µM,1.67 µM,4.83 µM,1.39 µM,5.46 µM,–,–,1.64 µM,3.04 µM,6.86 µM,18 µM,1.35 µM,2.89 µM,1.57 µM,3.95 µM,1.84 µM,0.324 µM
COC1=NN2C(OC)(c3ccccc3)c3c(-c4ccccc4)sc(-c4ccccc4)c3C2(c2ccccc2)S1 (configuration not stated),–,> 100 µM,–,> 100 µM,–,> 100 µM,–,> 100 µM,–,–,–,> 100 µM,–,> 10 µM,–,> 100 µM,> 100 µM,> 100 µM,–,–
